Read-outs that look alike come from different tables or passages of the source.
Target: endogenous CETP from serum (Homo sapiens (Human), UniProt P11597)
Test: RTA assay in 95% human serum (CETP-catalyzed CE and TG transfer, endogenous CETP)
Type: biochemical
[1] = RTA assay, 95% human serum, read-out: RTA (95% HS)
[2] = RTA assay in 95% human serum, read-out: IC50

Chain of endogenous CETP from serum (P11597 18-493 limits assumed): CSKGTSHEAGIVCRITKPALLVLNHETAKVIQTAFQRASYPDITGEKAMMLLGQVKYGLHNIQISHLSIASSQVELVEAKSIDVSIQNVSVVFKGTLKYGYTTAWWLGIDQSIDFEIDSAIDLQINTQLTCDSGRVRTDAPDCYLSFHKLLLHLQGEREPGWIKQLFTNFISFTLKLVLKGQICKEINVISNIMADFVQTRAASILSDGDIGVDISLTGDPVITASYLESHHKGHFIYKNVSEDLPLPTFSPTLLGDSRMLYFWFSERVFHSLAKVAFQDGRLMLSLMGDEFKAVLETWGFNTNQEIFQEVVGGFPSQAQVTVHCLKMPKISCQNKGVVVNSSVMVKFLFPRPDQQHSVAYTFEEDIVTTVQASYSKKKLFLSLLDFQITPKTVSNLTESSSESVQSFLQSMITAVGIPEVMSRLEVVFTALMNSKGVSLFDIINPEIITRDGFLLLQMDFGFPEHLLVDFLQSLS

Molecule `COc1ccc([C@H]2[C@H](C)NC(=O)[C@@H]2C)cc1-c1ccc(C(F)(F)F)cc1[C@@H]1CC[C@H]2[C@@H](c3cc(C(F)(F)F)cc(C(F)(F)F)c3)OC(=O)N12` [Example 4, (1R,5S,7aS)-1-(3,5-bis(trifluoromethyl)phenyl)-5-(5′-((2S,3S,4R)-2,4-dimethyl-5-oxopyrrolidin-3-yl)-2′-methoxy-4-(trifluoromethyl)-[1,1′-biphenyl]-2-yl)tetrahydropyrrolo[1,2-c]oxazol-3(1H)one] has an IC50 [1] of 398 nM.

`COc1ccc(Cl)cc1-c1ccc(C(F)(F)F)cc1[C@@H]1CC[C@H]2[C@@H](c3cc(C(F)(F)F)cc(C(F)(F)F)c3)OC(=O)N12` [Example 14, (1R,5S,7aS)-1-[3,5-bis(trifluoromethyl)phenyl]-5-[5′-chloro-2′-methoxy-4-(trifluoromethyl)biphenyl-2-yl]tetrahydro-1H-pyrrolo[1,2-c][1,3]oxazol-3-one] showed an IC50 [2] of 233 nM.

In the case of `COc1ncc(C(F)(F)F)cc1-c1ccc(C(F)(F)F)cc1[C@@H]1CC[C@H]2[C@@H](c3cc(C(F)(F)F)cc(C(F)(F)F)c3)OC(=O)N12` [Example 10, (1R,5S,7aS)-1-[3,5-bis(trifluoromethyl)phenyl]-5-{2-[2-methoxy-5-(trifluoromethyl)pyridin-3-yl]-5-(trifluoromethyl)phenyl}tetrahydro-1H-pyrrolo[1,2-c][1,3]oxazol-3-one], the IC50 [2] is reported as 371 nM.

`COC(=O)CCc1ccc(OC)c(-c2ccc(C(F)(F)F)cc2[C@@H]2CC[C@H]3[C@@H](c4cc(C(F)(F)F)cc(C(F)(F)F)c4)OC(=O)N23)c1` [Example 1, Methyl 3-[2′-{(1R,5S,7aS)-1-[3,5-bis(trifluoromethyl)phenyl]-3-oxotetrahydro-1H-pyrrolo[1,2-c][1,3]oxazol-5-yl}-6-methoxy-4′-(trifluoromethyl)biphenyl-3-yl]propanoate] was tested, and the IC50 [1] was 296 nM.

Molecule `O=C1O[C@H](c2cc(C(F)(F)F)cc(C(F)(F)F)c2)[C@@H]2CC[C@@H](c3cc(C(F)(F)F)ccc3-c3cc(Cl)ccc3F)N12` [Example 23, (1R,5S,7aS)-1-[3,5-bis(trifluoromethyl)phenyl]-5-[5′-chloro-2′-fluoro-4-(trifluoromethyl)biphenyl-2-yl]tetrahydro-1H-pyrrolo[1,2-c][1,3]oxazol-3-one] has an IC50 [2] of 188 nM.

In the case of `COc1ncc(C(C)C)cc1-c1ccc(C(F)(F)F)cc1[C@@H]1CC[C@H]2[C@@H](c3cc(C(F)(F)F)cc(C(F)(F)F)c3)OC(=O)N12` [Example 45, (1R,5S,7aS)-1-[3,5-bis(trifluoromethyl)phenyl]-5-{2-[2-methoxy-5-(1-methylethyl)pyridin-3-yl]-5-(trifluoromethyl)phenyl}tetrahydro-1H-pyrrolo[1,2-c][1,3]oxazol-3-one], the IC50 [2] is reported as 44.7 nM.

With `N#Cc1cscc1-c1ccc(C(F)(F)F)cc1[C@@H]1CC[C@H]2[C@@H](c3cc(C(F)(F)F)cc(C(F)(F)F)c3)OC(=O)N12` [Example 12, 4-[2-{(1R,5S,7aS)-1-[3,5-bis(trifluoromethyl)phenyl]-3-oxotetrahydro-1H-pyrrolo[1,2-c][1,3]oxazol-5-yl}-4-(trifluoromethyl)phenyl]thiophene-3-carbonitrile] the IC50 [2] was 266 nM.

`COc1ncccc1-c1ccc(C(F)(F)F)cc1[C@@H]1CC[C@H]2[C@@H](c3cc(C(F)(F)F)cc(C(F)(F)F)c3)OC(=O)N12` [Example 21, (1R,5S,7aS)-1-[3,5-bis(trifluoromethyl)phenyl]-5-[2-(2-methoxypyridin-3-yl)-5-(trifluoromethyl)phenyl]tetrahydro-1H-pyrrolo[1,2-c][1,3]oxazol-3-one] showed an IC50 [2] of 316 nM.

Molecule `COc1ccc(C2CCC(C(=O)O)CC2)cc1-c1ccc(C(F)(F)F)cc1[C@@H]1CC[C@H]2[C@@H](c3cc(C)cc(C(F)(F)F)c3)OC(=O)N12` (stereo partly drawn) [Example 52, 4-[6-methoxy-2′-{(1R,5S,7aS)-1-[3-methyl-5-(trifluoromethyl)phenyl]-3-oxotetrahydro-1H-pyrrolo[1,2-c][1,3]oxazol-5-yl}-4′-(trifluoromethyl)biphenyl-3-yl]cyclohexanecarboxylic acid] has an IC50 [2] of 260 nM.

With `COc1ncc(-c2c(C)cc(C(=O)O)cc2C)cc1-c1ccc(C(F)(F)F)cc1[C@@H]1CC[C@H]2[C@@H](c3cc(C(F)(F)F)cc(C(F)(F)F)c3)OC(=O)N12` [Example 56, 4-{5-[2-{(1R,5S,7aS)-1-[3,5-bis(trifluoromethyl)phenyl]-3-oxotetrahydro-1H-pyrrolo[1,2-c][1,3]oxazol-5-yl}-4-(trifluoromethyl)phenyl]-6-methoxypyridin-3-yl}-3,5-dimethylbenzoic acid] the IC50 [2] was 47 nM.

For `COc1ncc(Cl)cc1-c1ccc(C(F)(F)F)cc1[C@@H]1CC[C@H]2[C@@H](c3cc(C(F)(F)F)cc(C(F)(F)F)c3)OC(=O)N12` [Example 11, (1R,5S,7aS)-1-[3,5-bis(trifluoromethyl)phenyl]-5-[2-(5-chloro-2-methoxypyridin-3-yl)-5-(trifluoromethyl)phenyl]tetrahydro-1H-pyrrolo[1,2-c][1,3]oxazol-3-one], the IC50 [2] was 294 nM.

`COc1ccc(-c2ccc(C(=O)O)cc2C)cc1-c1ccc(F)cc1[C@@H]1CC[C@H]2[C@@H](c3cc(C(F)(F)F)cc(C(F)(F)F)c3)OC(=O)N12` [Example 34, 2″-{(1R,5S,7aS)-1-[3,5-bis(trifluoromethyl)phenyl]-3-oxotetrahydro-1H-pyrrolo[1,2-c][1,3]oxazol-5-yl}-4″-fluoro-4′-methoxy-2-methyl-1,1′:3′,1″- terphenyl-4-carboxylic acid] showed an IC50 [2] of 229 nM.

`COc1ccc(-c2ccc(C(=O)O)cc2C)cc1-c1ccc(N(C)C)nc1[C@@H]1C=C[C@H]2[C@@H](c3cc(C(F)(F)F)cc(C(F)(F)F)c3)OC(=O)N12` [Example 47, 3′-[2-{(1R,5S,7aS)-1-[3,5-bis(trifluoromethyl)phenyl]-3-oxo-5,7a-dihydro-1H-pyrrolo[1,2-c][1,3]oxazol-5-yl}-6-(dimethylamino)pyridin-3-yl]-4′-methoxy-2-methylbiphenyl-4-carboxylic acid] was tested, and the IC50 [2] was 491 nM.

For `O=C1O[C@H](c2cc(C(F)(F)F)cc(C(F)(F)F)c2)[C@@H]2CC[C@@H](c3cc(C(F)(F)F)ccc3C3=CCCC3)N12` [Example 22, (1R,5S,7aS)-1-[3,5-bis(trifluoromethyl)phenyl]-5-[2-cyclopent-1-en-1-yl-5-(trifluoromethyl)phenyl]tetrahydro-1H-pyrrolo[1,2-c][1,3]oxazol-3-one], the IC50 [2] was 56.6 nM.

With `COc1ccc(-c2cnc(C(=O)O)cc2C)cc1-c1ccc(F)cc1[C@@H]1CC[C@H]2[C@@H](c3cc(C(F)(F)F)cc(C(F)(F)F)c3)OC(=O)N12` [Example 38, 5-(2′-{(1R,5S,7aS)-1-[3,5-bis(trifluoromethyl)phenyl}-3-oxotetrahydro-1H-pyrrolo[1,2-c][1,3]oxazol-5-yl}-4′-fluoro-6-methxoybiphenyl-3-yl)-4-methylpyridine-2-carboxylic acid] the IC50 [2] was 1740 nM.

For `COc1ccc(F)cc1-c1ccc(C(F)(F)F)cc1[C@@H]1CC[C@H]2[C@@H](c3cc(C(F)(F)F)cc(C(F)(F)F)c3)OC(=O)N12` [Example 19, (1R,5S,7aS)-1-[3,5-bis(trifluoromethyl)phenyl]-5-[5′-fluoro-2′-methoxy-4-(trifluoromethyl)biphenyl-2-yl]tetrahydro-1H-pyrrolo[1,2-c][1,3]oxazol-3-one], the IC50 [2] was 166 nM.

`COc1ccc(CCc2n[nH]c(=O)o2)cc1-c1ccc(C(F)(F)F)cc1[C@@H]1CCC[C@H]2[C@@H](c3cc(C(F)(F)F)cc(C(F)(F)F)c3)OC(=O)N12` [Example 80, (1R,5S,8aS)-1-[3,5-bis(trifluoromethyl)phenyl]-5-{2′-methoxy-5′-[2-(5-oxo-4,5-dihydro-1,3,4-oxadiazol-2-yl)ethyl]-4-(trifluoromethyl)biphenyl-2-yl}hexahydro[1,3]oxazolo[3,4-a]pyridin-3-one] showed an IC50 [1] of 942 nM.

With `COc1ccc(C#N)cc1-c1ccc(C(F)(F)F)cc1[C@@H]1CC[C@H]2[C@@H](c3cc(C(F)(F)F)cc(C(F)(F)F)c3)OC(=O)N12` [Example 9, 2′-{(1R,5S,7aS)-1-[3,5-bis(trifluoromethyl)phenyl]-3-oxotetrahydro-1H-pyrrolo[1,2-c][1,3]oxazol-5-yl}-6-methoxy-4′-(trifluoromethyl)biphenyl-3-carbonitrile] the IC50 [2] was 224 nM.

In the case of `COc1ccc(-c2ccc(C(=O)O)cc2C)cc1-c1ncc(C(F)(F)F)cc1[C@@H]1C=C[C@H]2[C@@H](c3cc(C(F)(F)F)cc(C(F)(F)F)c3)OC(=O)N12` [Example 68, 3′-(3-((1R,5S,7aS)-1-(3,5-bis(trifluuoromethyl)phenyl)-3-oxo-1,3,5,7a-tetrahydropyrrolo[1,2-c]oxazol-5-yl)-5-(trifluoromethyl)pyridin-2-yl)-4′-methoxy-2-methyl-[1,1′-biphenyl]-4-carboxylic acid], the IC50 [2] is reported as 424 nM.

For `Cc1ccc(Cl)cc1-c1ccc(C(F)(F)F)cc1[C@@H]1CC[C@H]2[C@@H](c3cc(C(F)(F)F)cc(C(F)(F)F)c3)OC(=O)N12` [Example 26, (1R,5S,7aS)-1-[3,5-bis(trifluoromethyl)phenyl]-5-[5′-chloro-2′-methyl-4-(trifluoromethyl)biphenyl-2-yl]tetrahydro-1H-pyrrolo[1,2-c][1,3]oxazol-3-one], the IC50 [2] was 1220 nM.

In the case of `COc1cc(F)c(-c2ccc(C(=O)O)cc2C)cc1-c1ccc(C(F)(F)F)cc1[C@@H]1C=C[C@H]2[C@@H](c3cc(C(F)(F)F)cc(C(F)(F)F)c3)OC(=O)N12` [Example 50, 2″-{(1R,5S,7aS)-1-[3,5-bis(trifluoromethyl)phenyl]-3-oxo-5,7a-dihydro-1H-pyrrolo[1,2-c][1,3]oxazol-5-yl}-6′-fluoro-4′-methoxy-2-methyl-4″- (trifluoromethyl)-1,1′:3′,1″- terphenyl-4-carboxylic acid], the IC50 [2] is reported as 47.9 nM.

In the case of `COc1ccc([C@@H]2C[C@@H](O)[C@@H](O)C2)cc1-c1ccc(C(F)(F)F)cc1[C@@H]1CC[C@H]2[C@@H](c3cc(C(F)(F)F)cc(C(F)(F)F)c3)OC(=O)N12` [Example 58, (1R,5S,7aS)-1-[3,5-bis(trifluoromethyl)phenyl]-5-{5′-[(1s,3R,4S)-3,4-dihydroxycyclopentyl]-2′-methoxy-4-(trifluoromethyl)biphenyl-2-yl}tetrahydro-1H-pyrrolo[1,2-c][1,3]oxazol-3-one], the IC50 [2] is reported as 418 nM.

From patent US8871738B2, “Fused bicyclic oxazolidinone CETP inhibitor” (Merck Sharp & Dohme Corp., priority 2011, dated 2014)
